In brackets after ≈: the same amount, converted by molar mass.
Key:
Assay in all cases: ≥ marks a high value that may be exact or a test limit, other limits are often not marked, values filed in µg/mL are converted to µM
[1] = test system: Staphylococcus aureus MW2
[2] = test system: Staphylococcus aureus ATCC 29231
[3] = test system: Acinetobacter baumannii ATCC 7978
[4] = test system: Candida albicans ATCC 10231
[5] = test system: Klebsiella aerogenes ATCC 13048
[6] = test system: Micrococcus luteus A270
[7] = test system: Salmonella enterica subsp. enterica serovar Enteritidis
[8] = test system: Listeria innocua
[9] = test system: Escherichia coli
[10] = test system: Escherichia coli DH5alpha
[11] = test system: Staphylococcus aureus SH1000
[12] = test system: Klebsiella pneumoniae WGLW2

MIC [6] [µM] | MIC [7] [µM] | MIC [8] [µM] | MIC [9] [µM] | Structure (SMILES) | MIC [1] [µM] | MIC [2] [µM] | MIC [3] [µM] | further results
 |  |  |  | CC[C@H](C)[C@H](NC(=O)[C@H](CCCCN)NC(=O)[C@H](Cc1c[nH]c2ccccc12)NC(=O)[C@@H](N)CC(C)C)C(=O)NCC(=O)N[C@@H](Cc1c[nH]c2ccccc12)C(=O)N[C@@H](CCCCN)C(=O)N[C@H](C(=O)N[C@@H](Cc1c[nH]c2ccccc12)C(=O)N[C@@H](CCCN=C(N)N)C(=O)N[C@H](C(=O)NCC(=O)N[C@@H](Cc1c[nH]c2ccccc12)C(=O)N[C@@H](CC(N)=O)C(=O)N[C@@H](Cc1c[nH]c2ccccc12)C(=O)N[C@@H](CCCN=C(N)N)C(=O)O)C(C)C)[C@@H](C)CC [LWKIGWKIWRVGWNWR] | 14.7 (≈ 32 µg/mL) | 14.7 (≈ 32 µg/mL) | 14.7 (≈ 32 µg/mL) | MIC [4]: 29.3 µM (≈ 64 µg/mL); MIC [5]: ≥ 58.6 µM
≥ 54 | 27 (≈ 73.7 µg/mL) | 27 (≈ 73.7 µg/mL) | 54 (≈ 147 µg/mL) | CC(C)C[C@H](NC(=O)[C@@H](N)C(C)C)C(=O)N[C@@H](CO)C(=O)N[C@@H](C)C(=O)N[C@@H](C)C(=O)N[C@@H](CC(=O)O)C(=O)N[C@@H](CCCCN)C(=O)NCC(=O)N[C@@H](CC(N)=O)C(=O)N[C@H](C(=O)N[C@@H](CCCCN)C(=O)N[C@@H](C)C(=O)N[C@@H](C)C(=O)N[C@@H](Cc1c[nH]c2ccccc12)C(=O)NCC(=O)N[C@@H](CCCCN)C(=O)N[C@H](C(=O)NCC(=O)NCC(=O)N[C@@H](Cc1cnc[nH]1)C(=O)N[C@@H](C)C(=O)N[C@@H](C)C(=O)N[C@@H](CCC(=O)O)C(=O)N[C@@H](Cc1ccc(O)cc1)C(=O)NCC(=O)N[C@@H](C)C(=O)N[C@@H](CCC(=O)O)C(=O)N[C@@H](C)C(=O)O)C(C)C)C(C)C [VLSAADKGNVKAAWGKVGGHAAEYGAEA] |  |  |  | 
 |  |  |  | CC[C@H](C)[C@H](NC(=O)[C@H](C)NC(=O)[C@H](CCCCN)NC(=O)[C@@H](NC(=O)[C@H](CC(C)C)NC(=O)[C@H](CCCCN)NC(=O)[C@H](CCCCN)NC(=O)[C@@H](NC(=O)CNC(=O)[C@H](C)NC(=O)[C@H](Cc1ccccc1)NC(=O)[C@H](Cc1ccccc1)NC(=O)[C@H](CCCCN)NC(=O)CNC(=O)[C@@H](N)Cc1c[nH]c2ccccc12)C(C)C)[C@@H](C)O)C(=O)N[C@@H](CC(C)C)C(=O)N[C@@H](C)C(=O)N[C@H](C(=O)N[C@@H](CCCN=C(N)N)C(=O)N[C@@H](C)C(N)=O)C(C)C [WGKFFAGVKKLTKAILAVRA] |  |  |  | MIC [10]: 10 µM (≈ 22 µg/mL); MIC [11]: 3.16 µM (≈ 6.97 µg/mL)
≥ 85 | ≥ 73 | ≥ 73 | 73 (≈ 201 µg/mL) | CC(C)C[C@H](NC(=O)[C@H](C)NC(=O)[C@H](CC(N)=O)NC(=O)[C@H](C)NC(=O)[C@@H](NC(=O)CNC(=O)[C@H](C)NC(=O)[C@@H](NC(=O)[C@@H](NC(=O)[C@H](CCCCN)NC(=O)[C@H](CCC(N)=O)NC(=O)[C@H](Cc1ccccc1)NC(=O)[C@H](CC(=O)O)NC(=O)[C@H](C)NC(=O)[C@H](CCC(N)=O)NC(=O)[C@H](CC(C)C)NC(=O)[C@@H](NC(=O)[C@@H]1CCCN1C(=O)[C@@H](NC(=O)[C@@H](N)Cc1ccccc1)[C@@H](C)O)C(C)C)C(C)C)C(C)C)C(C)C)C(=O)N[C@@H](C)C(=O)N[C@@H](Cc1cnc[nH]1)C(=O)N[C@@H](CCCN=C(N)N)C(=O)N[C@@H](Cc1ccc(O)cc1)C(=O)N[C@@H](Cc1cnc[nH]1)C(=O)O [FTPVLQADFQKVVAGVANALAHRYH] |  |  |  | 
 |  |  |  | CC[C@H](C)[C@H](NC(=O)[C@H](Cc1c[nH]c2ccccc12)NC(=O)[C@H](CCCCN)NC(=O)[C@@H](N)CC(C)C)C(=O)NCC(=O)N[C@@H](CCCCN)C(=O)N[C@@H](Cc1c[nH]c2ccccc12)C(=O)N[C@H](C(=O)N[C@@H](Cc1c[nH]c2ccccc12)C(=O)N[C@@H](CCCN=C(N)N)C(=O)N[C@H](C(=O)NCC(=O)O)C(C)C)[C@@H](C)CC [LKWIGKWIWRVG] | ≥ 41.5 | ≥ 83 | ≥ 83 | MIC [12]: ≥ 83 µM
